Assay results reported in patent US20110092456A1, “Methods of increasing cAMP levels and uses thereof” (priority 2009, published 2011).

Assays:
15dPGJ2 = assay: Myocardial 15dPGJ2 levels, mouse; format: in vivo
Protocol: (§1) Protocol 1: Mice received 3-day pretreatment with: 1) SIT (300 mg/kg per day); 2) PIO (5 mg/kg per day); 3) SIT+PIO; or water alone (control). Drugs were suspended in water and administered by oral gavage once daily. On the 4th day, mice received intravenous H-89 (20 mg/kg) or vehicle (5% DMSO) (40). One hour after injection, mice underwent coronary artery ligation for 30 minutes followed by 4-hour reperfusion, or mice were euthanized under anesthesia and hearts were explanted without being subjected to ischemia. For immunoblotting and enzyme activity, hearts were rinsed in cold PBS (pH 7.4), containing 0.16 mg/ml heparin to remove red blood cells and clots, frozen in liquid nitrogen and stored at −80° C. for further analyses.
(§2) Myocardial samples of the anterior wall of the left ventricle were homogenized in cold PBS (pH 7.4), and centrifuged. The supernatants were collected and stored on ice. […] Each myocardial sample was tested in triplicate (the first without an inhibitor; the second with DuP-697, a specific COX2 inhibitor; and the third with Sc560, a specific COX1 inhibitor. COX1 activity was calculated as the difference between total COX activity in the sample without an inhibitor and the sample with Sc560, and COX2 activity as the difference between total COX activity in the sample without an inhibitor and the sample with DuP-697.

[1] = test system: coronary artery ligation for 30 minutes followed by 4-hour reperfusion; assay: Mouse coronary artery ligation/reperfusion infarct size; format: in vivo; conditions: for IS, expressed as a percent of the left ventricle or a percent of the area at risk: words
Protocol: as §1
Protocol 2: Mice received 14-day pretreatment with: 1) SIT (300 mg/kg per day); 2) PIO (5 mg/kg per day); 3) SIT+PIO; or water alone (control), as above. Mice underwent coronary artery ligation for 30 minutes followed by 4-hour reperfusion. […] The chest was opened and the left coronary artery was encircled with a suture and ligated for 30 minutes. Ischemia was verified by regional dysfunction and discoloration of the ischemic zone.
Hearts were excised and the left ventricle was sliced transversely into 6 sections. Slices were incubated for 10 minutes at 37 C in 1% buffered (pH=7.4) 2,3,5-triphenyl tetrazolium-chloride (TTC), fixed in a 10% formaldehyde and photographed in order to identify the AR (uncolored by the blue dye), the IS (unstained by TTC), and the non ischemic zones (colored by blue dye). The area of AR and IS in each slice were determined by planimetry, converted into percentages of the whole for each slice, and multiplied by the weight of the slice. The results were summed to obtain the weight of the myocardial AR and IS (38, 39).

6-keto-PGF1α = assay: Myocardial 6-keto-PGF1α levels, mouse; format: in vivo
Protocol: as §1, §2

15-epi-lipoxinA4 = assay: Myocardial 15-epi-lipoxinA4 levels, mouse; format: in vivo
Protocol: as §1
(§3) Myocardial samples of the anterior wall of the left ventricle were homogenized in cold PBS (pH 7.4), and centrifuged. The supernatants were collected and stored on ice. Measurement of 6-Keto-PGF1α, the stable metabolite of prostacyclin, 15dPGJ2, 15-epilipoxinA4, and PLA2 activity were made using immunoassay assay kits. The COX activity assay kit measures the peroxidase activity of COX, assayed colorimetrically by monitoring the appearance of oxidized N,N,N″,N″-tetramethyl-p-phenylenediamaine (TMPD) at 590 nm. Each myocardial sample was tested in triplicate (the first without an inhibitor; the second with DuP-697, a specific COX2 inhibitor; and the third with Sc560, a specific COX1 inhibitor. COX1 activity was calculated as the difference between total COX activity in the sample without an inhibitor and the sample with Sc560, and COX2 activity as the difference between total COX activity in the sample without an inhibitor and the sample with DuP-697.

cAMP = assay: Myocardial cAMP levels, mouse; format: in vivo; conditions: for myocardial cAMP levels: mice, 3-day pretreatment, hearts not subjected to ischemia, words
Protocol: as §1
Myocardial samples from the anterior wall of the left ventricle of hearts that were not subjected to ischemia were homogenize in 1 ml cold extraction buffer [20 mM Tris-HCl (pH7.4), 0.5 mM EDTA, 0.5 mM EGTA, 10 mM β-mercaptoethanol, 1 mM phenylmethylsulfonyl fluoride, 0.1 mM dithiothreitol (DTT), 1 μg/ml leupeptin, 1 μg/ml aprotinin, 0.1% TritonX-100], centrifuged at 14,000×g for 15 min at 4° C., and the supernatants were collected. cAMP levels and PKA activity were measured using assay kits according to the manufacturer's instructions.

COX2 = assay: Myocardial COX2 activity, mouse; format: in vivo; conditions: for COX2 activity: mice, 3-day pretreatment, words
Protocol: as §1, §3

Protein Kinase A (PKA) = assay: Myocardial PKA activity, mouse; format: in vivo
Protocol: Protocol 1: Mice received 3-day pretreatment with: 1) SIT (300 mg/kg per day); 2) PIO (5 mg/kg per day); 3) SIT+PIO; or water alone (control). Drugs were suspended in water and administered by oral gavage once daily. […] One hour after injection, mice underwent coronary artery ligation for 30 minutes followed by 4-hour reperfusion, or mice were euthanized under anesthesia and hearts were explanted without being subjected to ischemia.

CREB = assay: Immunoblotting of myocardial CREB, mouse; format: in vivo; conditions: IR
Protocol: as §1
(§4) Myocardial samples from the risk zone of the anterior wall of the left ventricular wall exposed to ischemia-reperfusion (IR), or from the anterior wall of control hearts not exposed to ischemia were homogenized in lysis buffer (in mMol): 25 Tris.HCl (pH 7.4), 0.5 EDTA, 0.5 EGTA, 1 phenylmethylsulfonyl 193 fluoride, 1 dithiothreitol, 25 NaF, 1 Na3VO4, 1% Triton X-100, 2% SDS and 1% 194 protease inhibitor cocktail. The lysate was centrifuged at 10,000 g for 15 min at 4° C. The resulting supernatants were collected. Protein (50 μg) was fractionated by SDS-PAGE (4%-20% polyacrylamide gels) and transferred to PVDF membranes (Millipore, Bedford, Mass.). The membranes were incubated overnight at […] with primary antibodies. Bound antibodies were detected using the chemiluminescent substrate (NEN Life Science Products, Boston, Mass.). The protein signals were quantified 200 with an image-scanning densitometer, and the strength of each 201 protein signal was normalized to the corresponding β-actin signal. Data are expressed as percent of the expression in the 202 control group.

cPLA2 = assay: Myocardial cPLA2 activity, mouse; format: in vivo; conditions: for cPLA2 activity: mice, 3-day pretreatment, words
Protocol: as §1, §3

eNOS = assay: Immunoblotting of myocardial eNOS, mouse; format: in vivo
Protocol: as §1, §4

[2] = test system: middle cerebral artery occlusion; conditions: rat; 2 h occlusion, 24 h reperfusion; oral cilostazol 30 mg/kg, aspirin 300 mg/kg, clopidogrel 30 mg/kg; cited from earlier work
[3] = cited from earlier work
[4] = H-89 20 mg/kg i.v. after 3-day PIO
[5] = Protocol 1: mice, 3-day pretreatment (SIT 300 mg/kg per day, PIO 5 mg/kg per day), H-89 20 mg/kg i.v. alone
[6] = H-89 20 mg/kg i.v. after 3-day SIT
[7] = H-89 20 mg/kg i.v. after 3-day PIO, IR
[8] = H-89 20 mg/kg i.v. after 3-day SIT, IR
[9] = mice, 3-day pretreatment, words
[10] = mice, 3-day pretreatment, IR-induced increase, immunoblot, words
[11] = 50 patients, primary stenting for ST elevation acute myocardial infarction, cilostazol 100 mg BID versus aspirin alone

## O=S(=O)(NCCNC/C=C/c1ccc(Br)cc1)c1cccc2cnccc12 [H-89]
15dPGJ2; [4]
  15dPGJ2 levels: H-89 on the effect of PIO: did not block the effect of PIO
[1]; [5]
  IS, expressed as a percent of the left ventricle or a percent of the area at risk: no effect on IS
[1]; Protocol 1, H-89 20 mg/kg i.v. one hour before ligation after 3-day PIO
  IS: effect of H-89 on the effect of PIO: only partially blocked the effect of PIO
[1]; Protocol 1, H-89 20 mg/kg i.v. one hour before ligation after 3-day SIT
  IS: effect of H-89 on the effect of SIT: completely blocked the effect of SIT
6-keto-PGF1α; [4]
  6-keto-PGF1α levels: H-89 on the effect of PIO: did not block the effect of PIO
15-epi-lipoxinA4; [4]
  15-epi-lipoxinA4 levels: H-89 on the effect of PIO: completely blocked the effect of both PIO and SIT
15-epi-lipoxinA4; [6]
  15-epi-lipoxinA4 levels: H-89 on the effect of SIT: completely blocked the effect of both PIO and SIT
cAMP; [6]
  myocardial cAMP levels: H-89 on the SIT effect: did not block the SIT effect
cAMP
  myocardial cAMP levels: no effect on cAMP levels
COX2; [4]
  COX2 activity: H-89 on the PIO induced increase: did not block the PIO induced increase
COX2; [6]
  COX2 activity: H-89 in combination with SIT: no effect on COX2 activity
COX2
  COX2 activity: no effect on COX2 activity
Protein Kinase A (PKA); [4]
  PKA activity: H-89 on the PIO induced increase: completely blocked
Protein Kinase A (PKA); [6]
  PKA activity: H-89 on the SIT induced increase: completely blocked
CREB; [4]
  levels of P-CREB: H-89 on the effect of PIO: blocked this effect of SIT and PIO
CREB; [6]
  levels of P-CREB: H-89 on the effect of SIT: blocked this effect of SIT and PIO
cPLA2; [4]
  cPLA2 activity: H-89 on the effect of PIO: did not block the effect of PIO
cPLA2; [6]
  cPLA2 activity: H-89 in combination with SIT: no effect on cPLA2 activity
cPLA2
  cPLA2 activity: no effect on cPLA2 activity
eNOS; [7]
  Ser-633 P-eNOS levels: H-89 on the effect of PIO: attenuated this increase
  Ser-1177 P-eNOS levels: H-89 on the effect of PIO: attenuated the effects of both SIT and PIO
eNOS; [8]
  Ser-633 P-eNOS levels: H-89 on the effect of SIT: attenuated this increase
  Ser-1177 P-eNOS levels: H-89 on the effect of SIT: attenuated the effects of both SIT and PIO

## N[C@@H](CC(=O)N1CCn2c(nnc2C(F)(F)F)C1)Cc1cc(F)c(F)cc1F [SIT, sitagliptin phosphate]
15dPGJ2; [9]
  15dPGJ2 levels: no effect
[1]; [5]
  IS, expressed as a percent of the left ventricle or a percent of the area at risk: significantly smaller
[1]; Protocol 2: mice, 14-day pretreatment (SIT 300 mg/kg per day, PIO 5 mg/kg per day)
  IS, expressed as a percent of the left ventricle or a percent of the area at risk: significantly smaller
6-keto-PGF1α; [9]
  6-keto-PGF1α levels: no effect
15-epi-lipoxinA4; [9]
  15-epi-lipoxinA4 levels: significantly increased
cAMP
  myocardial cAMP levels: significant increase
COX2
  COX2 activity: no effect on COX2 activity
Protein Kinase A (PKA); mice, 3-day pretreatment, hearts not subjected to ischemia, words
  myocardial PKA activity: augmented PKA activity
CREB; mice, 3-day pretreatment, immunoblot, words
  total CREB levels: did not affect total CREB levels
CREB; mice, 3-day pretreatment, versus control no IR or control IR, words
  levels of P-CREB: significantly higher
cPLA2
  cPLA2 activity: but not SIT, augmented cPLA2 activity
eNOS; [10]
  Ser-633 P-eNOS levels: augmented this increase
  Ser-1177 P-eNOS levels: augmented this increase
eNOS; mice, 3-day pretreatment, ischemia-reperfusion (IR), immunoblot, words
  total eNOS levels: no effect on total eNOS levels

## CC(=O)Oc1ccccc1C(=O)O [aspirin]
[2]
  brain infarct size: but not aspirin (300 mg/kg) or clopidogrel (30 mg/kg) reduced brain infarct size
[3]; [11]
  6-month restenosis rate: 20%
  target lesion revascularization: 16%
[3]; 70 patients, Palmaz-Schatz stenting, cilostazol 200 mg/d, aspirin 81 mg/d
  in-stent stenosis: 26.8%

## COC(=O)[C@H](c1ccccc1Cl)N1CCc2sccc2C1 [clopidogrel]
[2]
  brain infarct size: but not aspirin (300 mg/kg) or clopidogrel (30 mg/kg) reduced brain infarct size
